{"source": "patent US10000498B2", "about": "“Selective proton coupled folate transporter and folate receptor, and GARFTase inhibitor compounds and methods of using the same” (Duquesne University of the Holy Spirit, priority 2008, dated 2018)", "key": {"[1]": {"system": "human KB cervical tumors as xenografts", "assay": "In vivo evaluation in advanced stage KB tumor xenograft", "design": "species or system SCID female mice", "description": "SCID female mice bearing advanced stage human KB cervical tumors as xenografts (xenograft tumors) were administered compound AAG154353 of the present invention intravenously at various doses and schedules.\nMice were maintained on a Folic Acid deficient diet (Harlan-Teklad Diet #00434; Madison, Wis.) exclusively for approximately three weeks at the start of treatment. […] Thus, significant antitumor activity was detected. Toxicity as reflected in weight loss was modest."}, "[2]": {"biological_target": "T1, hPCFT (Homo sapiens, UniProt Q96NT5)", "T1 construct": "expressed in transfected cells", "T1 sequence (Q96NT5 1-459)": "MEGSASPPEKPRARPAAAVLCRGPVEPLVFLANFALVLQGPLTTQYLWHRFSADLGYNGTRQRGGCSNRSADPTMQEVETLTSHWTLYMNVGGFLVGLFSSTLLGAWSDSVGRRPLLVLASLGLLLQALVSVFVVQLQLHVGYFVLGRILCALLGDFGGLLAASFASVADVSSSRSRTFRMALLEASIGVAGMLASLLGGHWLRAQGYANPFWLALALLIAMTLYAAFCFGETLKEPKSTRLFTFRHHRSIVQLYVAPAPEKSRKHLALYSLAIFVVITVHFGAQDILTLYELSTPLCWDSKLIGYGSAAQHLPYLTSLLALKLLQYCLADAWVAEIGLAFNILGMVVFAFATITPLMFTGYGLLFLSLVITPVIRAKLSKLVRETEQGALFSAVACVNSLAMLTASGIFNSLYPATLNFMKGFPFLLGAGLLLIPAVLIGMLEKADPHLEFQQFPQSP", "assay": "Inhibition of [3H]MTX transport by hPCFT", "type": "cell-based", "settings": "initial studies over a range of pH values"}, "[3]": {"system": "RT16 cells (hFRα-expressing Chinese hamster ovary)", "assay": "Growth inhibition of FR-expressing RT16 CHO cells, with or without folic acid", "type": "cell-based", "settings": "for IC50: Cricetulus griseus"}, "[4]": {"system": "KB cells", "assay": "Nucleoside/AICA protection from growth inhibition in KB cells", "type": "cell-based, human"}, "[5]": {"settings": "Q2dx4 starting day 43, 500 mg/kg total dose IV"}}, "note": "Like-named read-outs stand apart in the source and are kept apart here."}
{"compound": "Nc1nc2[nH]c(CCCCc3ccc(C(=O)N[C@@H](CCC(=O)O)C(=O)O)s3)cc2c(=O)[nH]1", "note": "[AAG154353, (S)-2-({5-[4-(2-amino-4-oxo-4,7-dihydro-3H-pyrrolo[2,3-d]pyrimidin-6-yl)-butyl]thiophene-2-carbonyl}-amino)-pentanedioic acid]", "values": [{"measurement": "Tumor response of late stage KB xenografts", "setting": "[1]; IV, three mice on various dose/schedules, tumors 446 to 650 mg at start, folic acid deficient diet", "result": "tumors regressed completely"}, {"measurement": "Toxicity as reflected in weight loss", "setting": "[1]; IV, various dose/schedules", "result": "modest"}, {"measurement": "Tumor size", "setting": "[1]; [5]", "result": 63, "unit": "mg"}, {"measurement": "Tumor-free status", "setting": "[1]; [5]", "result": "tumor free up to day 60"}, {"measurement": "Time mouse tumor free", "setting": "[1]; Q3dx4 starting day 37, 750 mg/kg total dose IV", "result": 30, "unit": "days"}, {"measurement": "Time mouse tumor free", "setting": "[1]; Q4dx3 starting day 48, 187.5 mg/kg total dose IV", "result": 30, "unit": "days"}, {"measurement": "Increased inhibition of hPCFT transport at acid (pH<7) over neutral (pH>7) conditions", "setting": "[2]", "result": "2-3 fold"}, {"measurement": "Growth inhibition / FR-targeted activity toward RT16 cells (in words)", "setting": "[3]", "result": "high level of FR-targeted activity"}, {"measurement": "IC50", "setting": "[3]; RT16, read-out: Growth inhibition (IC50, nM) hFRα RT16", "result": 2, "unit": "nM"}, {"measurement": "IC50", "setting": "[3]; RT16, read-out: Growth inhibition (IC50, nM) hFRα RT16 (+FA)", "result": "> 1000", "unit": "nM"}, {"measurement": "Effect of 5-amino-4-imidazolecarboxamide (AICA) on growth inhibition of KB cells", "setting": "[4]; AICA 320 μM", "result": "completely protected"}, {"measurement": "Effect of adenosine on growth inhibition of KB cells", "setting": "[4]; adenosine 60 μM", "result": "completely protective"}, {"measurement": "Effect of thymidine on growth inhibition of KB cells", "setting": "[4]; thymidine 10 μM", "result": "did not alter the growth inhibitory effects"}]}
